The results in this text go back to patent publication US6656022B2, “Method for polishing a semiconductor substrate member” (Hitachi, Ltd., priority 2001, dated 2003).

Like-named read-outs stand apart in the source and are kept apart here.

The nature of the data set: Solubility of abrasive-grain material at normal temperature. Format: physicochemical.
Where [1] appears, read: abrasive-grain material, normal temperature (25° C.).

Turning to `O=S(=O)([O-])[O-].O=S(=O)([O-])[O-].O=S(=O)([O-])[O-].[Ce+3].[Ce+3]` [Example 4, Ce2(SO4)3], the Solubility under setting [1] is on record as 7.59%.

Turning to `[Cl][Cu][Cl]` [Example 5, CuCl2], the Solubility under setting [1] worked out at 42.8%.

Compound `O=S(=O)([O-])[O-].[Cu+2]` [Example 6, CuSO4] returned a Solubility of 18.2%.

Compound `OC[C@H]1O[C@@](CO)(O[C@H]2O[C@H](CO)[C@@H](O)[C@H](O)[C@H]2O)[C@@H](O)[C@@H]1O` [Example 11, sucrose] showed a Solubility under setting [1] of 67.0%.

For the compound `O=C(O)CC(=O)O` [Example 12, malonic acid], under setting [1], the Solubility worked out at 32.2%.
